{
  "source": "paper PMC3131786",
  "about": "(Journal of Medicinal Chemistry, 2011)",
  "key": {"recombinant ATX": {"molecular_target": "recombinant ATX (Homo sapiens, UniProt Q13822)", "test": "Choline release assay", "format": "biochemical", "conditions": "for residual ATX activity: at maximal inhibition in the dose-response curve (Figure S3)"}, "ATX": {"test_system": "ATX", "conditions": "ATX activity fully restored upon washing out the inhibitor; cited from earlier work"}, "[1]": {"conditions": "cited from earlier work"}},
  "data": [
    {"molecule": "O=C1S/C(=C\\c2ccc(NCc3ccc(B(O)O)cc3)cc2)C(=O)N1Cc1ccc(F)cc1", "note": "[inhibitor 36]", "values": [
      {"measurement": "residual ATX activity", "setting": "recombinant ATX", "value": "no residual ATX activity"}
    ]},
    {"molecule": "O=C(Nc1ccc(B(O)O)cc1)c1ccc(/C=C2\\SC(=O)N(Cc3ccc(F)cc3)C2=O)cc1", "note": "[inhibitor 17]", "values": [
      {"measurement": "shape of dose-response curve", "setting": "recombinant ATX; Figure S2, n=5", "value": "biphasic curve"}
    ]},
    {"molecule": "O=C1S/C(=C\\c2ccc(OCc3ccc(B(O)O)cc3)cc2)C(=O)N1Cc1ccc(F)cc1", "note": "[inhibitor 1, (Z)-4-[(4-{[3-(4-Fluorobenzyl)-2,4-dioxo-1,3-thiazolan-5-yliden]methyl}phenoxy)methyl]benzene Boronic Acid]", "values": [
      {"measurement": "reversibility of binding to ATX", "setting": "ATX", "value": "reversible"}
    ]},
    {"molecule": "lysophosphatidic acid [LPA]", "values": [
      {"measurement": "half-life of LPA in vivo", "setting": "[1]", "value": "~5", "unit": "min"}
    ]},
    {"molecule": "O=C(Nc1ccc(/C=C2\\SC(=O)N(Cc3ccc(F)cc3)C2=O)cc1)c1ccc(B(O)O)cc1", "note": "[inhibitor 19]", "values": [
      {"measurement": "residual ATX activity", "setting": "recombinant ATX", "value": 10, "unit": "%"}
    ]}
  ]
}
